The record followed here is patent EP3628659A1, “SELENOESTER-CONTAINING COMPOUNDS FOR USE IN THE TREATMENT OF MICROBIAL INFECTIONS OR COLORECTAL CANCER” (Consejo Superior De Investigaciones Científicas, priority 2018, dated 2020).

The subject of test [1] is Steinernema feltiae. Put plainly: Nematicidal activity (viability count), Steinernema feltiae. In kind it is in vivo. Particulars: IC50 class, tested at 50, 100, 150 and 200 µM, viability at 24 h. On the procedure:
(§1) The compounds were tested for their antifungal and nematicidal properties against the fungi Candida albicans and Saccharomyces cerevisiae, and against the nematode Steinernema feltiae.
The soil nematodes S. feltiae were purchased from Sautter and Stepper GmbH (Ammerbuch, Germany) and stored at 4 °C in the dark. Before each experiment, fresh samples of nematodes were purchased and stored in the fridge upon arrival and used for a maximum of six days. To perform the assay, 200 mg of nematodes was reconstituted in 50 mL of phosphate buffered saline (PBS) (pH = 7.4) to form a homogenous suspension to revive the nematodes. Afterwards, the individual suspensions were allowed to rest at room temperature. The sedimentation was avoided with occasional shaking in moderate light and at room temperature (25 °C) for 30 min. Viability of the nematodes was determined by counting the live and dead nematodes under a light microscope (TR 200, VWR International, Leuven, Belgium) at four-fold magnification. An initial viability value of more than 90 percent was considered necessary to perform the experiments.
Sample solutions were added into the wells of a 96-well plate to achieve at final concentrations of 50,100, 150, and 200 µM. Afterwards, 10 µL of nematode suspension was added to each well and the final volume in each well was adjusted to 100 µL with phosphate buffered saline (PBS) (pH = 7.4). PBS was used in the negative control and ethanol in the positive control. Viability was determined at 0 h and 24 h by counting the live and dead nematodes, whereby 50 µL of lukewarm water (40 °C) were added to each well to stimulate the nematodes for the 24 h reading. Each experiment was performed independently in triplicate and on three different occasions (n = 9).
(§2) For the three organisms considered (C. albicans, S. cerevisiae and S. feltiae), the inhibitory concentration 50% (IC50) is defined as the concentration that inhibits the viability of the respective organism to a 50% of the viability determined for the negative control.

Test [2] deals with Candida albicans. Put plainly: Antifungal activity (optical density), Candida albicans. The test is classed as cell-based. The settings on record: IC50 class, tested at 50, 100, 150 and 200 µM, OD 570 nm, 37 °C. Here is the method:
as §1
(§3) Fungal cell densities were determined by measuring the optical density (OD) at 570 nm at 0 h (first measurement immediately after incubation), 4 h, and 24 h after incubation at 37 °C; and using a Universal Microplate Reader, EL800, Biotech Instruments, Inc. Highland Park, Winooski, VT, USA. Compounds were dissolved in 1% DMSO and were tested at final concentrations of 50, 100, 150, and 200 µM. Nutrient Sabouraud Dextrose (SD), and Yeast Peptone Dextrose (YPD) were used as media for C. albicans, and S. cerevisiae, respectively. Ketoconazole was used as the positive control for C. albicans and S. cerevisiae. The growth culture with medium for each organism was used as the negative control. The Solvent 1% DMSO stock was used as a solvent control. All experiments were carried out in triplicate and on three different occasions (n = 9).
as §2

Test [3] has as its system Colo 320/MDR-LRP multidrug resistant overexpressing ABCB1 (MDR1)-LRP. Put plainly: cells. The test is classed as cell-based, human. The settings on record: Homo sapiens, 24 h, read-out: Colo 320 Cytotoxicity. On the procedure:
(§4) Cytotoxicity assays in human colonic adenocarcinoma cell lines Colo 205 doxorubicin-sensitive (ATCC-CCL-222) and Colo 320/MDR-LRP multidrug resistant overexpressing ABCB1 (MDR1)-LRP (ATCC-CCL-220.1) were performed following the procedure described by Gajdács et al, 2017, Bioorg Med Chem Lett. 27(4): 797-802. The effects of increasing concentrations of selenium compounds on cell growth were tested in 96-well flat-bottomed microtiter plates. The selectivity of the action towards cancer cells was assessed through the evaluation of cytotoxic activity in a non-tumoral cell line, the MRC-5 human embryonal lung fibroblast cell lines (ATCC CCL-171), as described in Gajdács et al, 2017, Bioorg Med Chem Lett. 27(4): 797-802.
(§5) All cell lines were purchased from LGC Promochem, Teddington, UK. The colonic cells were cultured in RPMI 1640 medium supplemented with 10% heat-inactivated fetal bovine serum, 2 mM L-glutamine, 1 mM Na-pyruvate and 100 mM Hepes. The cell lines were incubated at 37°C, in a 5% CO2, 95% air atmosphere. The semi-adherent human colon cancer cells were detached with Trypsin-Versene (EDTA) solution for 5 min at 37°C. Alternatively, MRC-5 cells was cultured in Eagle's Minimal Essential Medium (EMEM, containing 4.5 g/L glucose) supplemented with a non-essential amino acid mixture, a selection of vitamins and 10% heat-inactivated fetal bovine serum. The cell lines were incubated at 37°C, in a 5% CO2, 95% air atmosphere.
(§6) The compounds were diluted in a volume of 100 µL of medium. The two-fold serial dilutions of selenocompounds were prepared in 100 µL of RPMI 1640, horizontally. The semi-adherent colonic adenocarcinoma cells were treated with Trypsin-Versene (EDTA) solution. They were adjusted to a density of 2×10^4 cells in 100 µL of RPMI 1640 medium, and were added to each well, with the exception of the medium control wells. The final volume of the wells containing selenocompounds and cells was 200 µL.
(§7) The culture plates were incubated at 37°C for 24 h; at the end of the incubation period, 20 µL of MTT (thiazolyl blue tetrazolium bromide, Sigma) solution (from a stock solution of 5 mg/mL) were added to each well. After incubation at 37°C for 4 h, 100 µL of sodium dodecyl sulfate (SDS) (Sigma) solution (10% in 0.01 M HCI) were added to each well and the plates were further incubated at 37°C overnight. Cell growth was determined by measuring the optical density (OD) at 540/630 nm with Multiscan EX ELISA reader (Thermo Labsystems, Cheshire, WA, USA). Inhibition of the cell growth was determined according to the formula below: […] = 100−[(OD sample−OD medium control)/(OD cell control−OD medium control)] × 100 [formula]
(§8) Results are expressed in terms of IC50, defined as the inhibitory dose that reduces the growth of the cells exposed to the tested compounds by 50%. Regarding the selectivity, the selectivity indexes (SI) were calculate, being SI the quotient of the IC50 in non-tumoral cells (MRC-5) and the respective cancer cell (Colo-205 or Colo-320). Compound is considered moderately selective when SI < 6 and ≥ 3; and strongly selective when SI ≥ 6.

Test [4] deals with Colo 205 doxorubicin-sensitive. In words: Cytotoxicity assay (MTT) in Colo 205 cells. In kind it is cell-based, human. Particulars: Homo sapiens, COLO 205, 24 h, read-out: Colo 205 Cytotoxicity. On the procedure: as §4, §5, §6, §7, §8
Test [5] deals with Saccharomyces cerevisiae. In words: Antifungal activity (optical density), Saccharomyces cerevisiae. The test is classed as cell-based. The settings on record: read-out: Antifungal activity Saccharomyces cerevisiae, IC50 class, tested at 50, 100, 150 and 200 µM, OD 570 nm, 37 °C, read-out: Antifungal activity Streptomyces cerevisiae. Here is the method: as §1, §3, §2

Turning to `N#CC[Se]C(=O)c1ccc(F)cc1` [Compound 1, Se-(cyanomethyl) 4-fluorobenzoselenoate], the IC50 in test [1] is 50 to 100 µM; in test [2] it was 10 to 50 µM; in test [3] it was 1 to 10 µM; in test [4], 1 to 10 µM; in test [5] it was more than 100 µM.
Take `N#CC[Se]C(=O)c1ccc(Cl)cc1` [Compound 3, Se-(cyanomethyl) 4-chlorobenzoselenoate]: the IC50 in test [1] is 10 to 50 µM; in test [2], 10 to 50 µM; in test [3], 1 to 10 µM; in test [4] it was less than 1 µM; in test [5] it was more than 100 µM.
Turning to `N#CCC[Se]C(=O)c1ccc(Cl)cc1` [Compound 4, Se-(cyanoethyl) 4-chlorobenzoselenoate], the IC50 in test [1] was 10 to 50 µM; in test [2], more than 100 µM; in test [3], 1 to 10 µM; in test [4], 1 to 10 µM; in test [5], 50 to 100 µM.
In the case of `N#CCCC[Se]C(=O)c1ccc(Cl)cc1` [Compound 5, Se-(cyanopropyl) 4-chlorobenzoselenoate], the IC50 in test [1] was 1 to 10 µM; in test [2], 10 to 50 µM; in test [3] it was 1 to 10 µM; in test [4], 1 to 10 µM; in test [5], more than 100 µM.
As for `N#CC[Se]C(=O)c1ccccc1` [Compound 6, Se-(cyanomethyl) benzoselenoate], the IC50 in test [1] was 10 to 50 µM; in test [2], 10 to 50 µM; in test [3], 1 to 10 µM; in test [4], 1 to 10 µM; in test [5], more than 100 µM.
With `Cc1ccc(C(=O)[Se]CC#N)cc1` [Compound 7, Se-(cyanomethyl) 4-methylbenzoselenoate], the IC50 in test [1] is 1 to 10 µM; in test [2], 10 to 50 µM; in test [3], 1 to 10 µM; in test [4] it was 1 to 10 µM; in test [5], more than 100 µM.
As to `Cc1ccc(C(=O)[Se]CCC#N)cc1` [Compound 8, Se-(cyanoethyl) 4-methylbenzoselenoate], the IC50 in test [1] is 10 to 50 µM; in test [2], more than 100 µM; in test [3] it was 1 to 10 µM; in test [4], 1 to 10 µM; in test [5], 50 to 100 µM.
Turning to `Cc1ccc(C(=O)[Se]CCCC#N)cc1` [Compound 9, Se-(cyanopropyl) 4-methylbenzoselenoate], the IC50 is 50 to 100 µM in test [1]; 50 to 100 µM in test [2]; 1 to 10 µM in test [3]; 1 to 10 µM in test [4]; more than 100 µM in test [5].
In the case of `CC(C)(C)c1ccc(C(=O)[Se]CC#N)cc1` [Compound 10, Se-(cyanomethyl) 4-tert-butylbenzoselenoate], the IC50 is more than 100 µM in test [1]; 10 to 50 µM in test [2]; 1 to 10 µM in test [3]; 1 to 10 µM in test [4]; more than 100 µM in test [5].
Regarding `N#CC[Se]C(=O)Cc1ccccc1` [Compound 11, Se-(cyanomethyl) 2-phenylethaneselenoate], the IC50 in test [1] is 50 to 100 µM; in test [2], 10 to 50 µM; in test [3] it was less than 1 µM; in test [4], less than 1 µM; in test [5] it was more than 100 µM.
On to `N#CC[Se]C(=O)c1ccc(Cl)cc1Cl` [Compound 13, Se-(cyanomethyl) 2,4-dichlorobenzoselenoate], for which the IC50 in test [1] was 10 to 50 µM; in test [2], 10 to 50 µM; in test [3] it was 1 to 10 µM; in test [4], 1 to 10 µM; in test [5] it was more than 100 µM.
As to `N#CCC[Se]C(=O)c1ccc(Cl)cc1Cl` [Compound 14, Se-(cyanoethyl) 2,4-dichlorobenzoselenoate], the IC50 in test [1] was 10 to 50 µM; in test [2], more than 100 µM; in test [3] it was 1 to 10 µM; in test [4], 1 to 10 µM; in test [5], 50 to 100 µM.
Regarding `N#CC[Se]C(=O)c1ccc(Cl)c(Cl)c1` [Compound 15, Se-(cyanomethyl) 3,4-dichlorobenzoselenoate], the IC50 was more than 100 µM in test [1]; 10 to 50 µM in test [2]; 1 to 10 µM in test [3]; 1 to 10 µM in test [4]; more than 100 µM in test [5].
For the compound `CC(=O)Oc1ccccc1C(=O)[Se]CC#N` [Compound 17, Se-(cyanomethyl) 2-acetoxybenzoselenoate], the IC50 in test [1] is 10 to 50 µM; in test [2] it was 10 to 50 µM; in test [3], 1 to 10 µM; in test [4], less than 1 µM; in test [5], 10 to 50 µM.
